What follows are compounds tested against T1, human LMPTP-A (Homo sapiens, UniProt P24666) (assay: Enzyme Assay of Inhibition of LMPTP-A). Conditions: phosphatase assay, OMFP or pNPP substrate, 50 mM Bis-Tris pH 6.0, 37° C.
T1 sequence (P24666 1-158): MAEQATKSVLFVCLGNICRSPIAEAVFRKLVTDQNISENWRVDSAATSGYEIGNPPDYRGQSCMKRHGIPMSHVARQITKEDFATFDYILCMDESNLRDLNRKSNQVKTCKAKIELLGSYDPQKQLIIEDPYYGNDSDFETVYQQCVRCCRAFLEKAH
Type: biochemical
Experimental: Phosphatase assays were performed in buffer containing 50 mM Bis-Tris, pH 6.0, 1 mM DTT and 0.01% Triton X-100 at 37° C. For assays conducted with 3-O-methylfluorescein phosphate (OMFP) as substrate, fluorescence was monitored continuously at λex=485 and λem=525 nm. For assays conducted with para-nitrophenylphosphate (pNPP) as substrate, the reaction was stopped by addition of 2× reaction volume of 1 M NaOH, and absorbance was measured at 405 nm. IC50 values of compounds disclosed herein were determined from plots of inhibitor concentration versus percentage of enzyme activity. For inhibitor selectivity assays, each PTP was incubated with either 0.4 mM OMFP or 5 mM pNPP in the presence of 40 μM compound or DMSO. […] For the inhibitor reversibility assay, 50 nM human LMPTP-A was pre-incubated with 10 μM of compound disclosed herein or DMSO for 5 min. The enzyme was diluted 100× in phosphatase assay buffer containing 0.4 mM OMFP and fluorescence was measured at the indicated time points.

| Compound | IC50 [µM] |
| --- | --- |
| Nc1ncn(Cc2c(Cl)ccnc2Cl)c2ncnc1-2 [3-[(2,4-dichloro-3-pyridyl)methyl]-3-hydropurine-6-ylamine] | ≤ 1 |
| Nc1ncn(Cc2c(F)ccc(F)c2F)c2ncnc1-2 [3-(2,3,6-Trifluoro-benzyl)-3H-purin-6-ylamine] | 1 to 20 |
| Cn1ncc(Br)c1Cn1cnc(N)c2ncnc1-2 [3-[(4-bromo-1-methylpyrazol-5-yl)methyl]-3-hydropurine-6-ylamine] | ≤ 1 |
| Nc1ncn(Cc2cc(Cl)ccc2Cl)c2ncnc1-2 [3-(2,5-Dichloro-benzyl)-3H-purin-6-ylamine] | 1 to 20 |
| Nc1ncn(Cc2ccsc2)c2ncnc1-2 [3-Thiophen-3-ylmethyl-3H-purin-6-ylamine] | ≥ 20 |
| Nc1ncn(Cc2c(Cl)cccc2Cl)c2ncnc1-2 [3-<2,6-Dichloro-benzyl)-3H-purin-6-ylamine] | ≤ 1 |
| Nc1ncn(Cc2c(Cl)cccc2Cl)c2nc(-c3ccccc3F)nc1-2 [3-[(2,6-Dichlorophenyl)methyl]-8-(2-fluorophenyl)-3-hydropurine-6-ylamine] | ≤ 1 |
| Nc1ncn(Cc2ccc3ccccc3n2)c2ncnc1-2 [3-(quinolin-2-ylmethyl)-3H-purin-6-amine] | 1 to 20 |
| Cc1ccccc1-c1nc2c(N)ncn(Cc3c(Cl)cccc3Cl)c-2n1 [3-[(2,6-Dichlorophenyl)methyl]-8-(2-methylphenyl)-3-hydropurine-6-ylamine] | ≤ 1 |
| Cc1noc(C)c1-c1nc2c(N)ncn(Cc3c(Cl)cccc3Cl)c-2n1 [3-(2,6-dichlorobenzyl)-8-(3,5-dimethylisoxazol-4-yl)-3H-purin-6-amine] | ≤ 1 |
| Nc1ncn(Cc2cccc(O)c2)c2ncnc1-2 [3-(6-Amino-purin-3-ylmethyl)-phenol] | 1 to 20 |
| Clc1cccc(Cl)c1Cn1cnc(N2CCOCC2)c2ncnc1-2 [3-(2,6-Dichloro-benzyl)-6-morpholin-4-yl-3H-purine] | ≥ 20 |
| CN1CCC(c2nc3c(N)ncn(Cc4c(Cl)cccc4Cl)c-3n2)CC1 [3-[(2,6-Dichlorophenyl)methyl]-8-(1-methyl(4-piperidyl))-3-hydropurine-6-ylamine] | ≤ 1 |
| Nc1ncn(Cc2c(Cl)cccc2Cl)c2nc(-c3cncs3)nc1-2 [3-[(2,6-Dichlorophenyl)methyl]-8-(1,3-thiazol-5-yl)-3-hydropurine-6-ylamine] | ≤ 1 |
| COc1ccc(-c2nc3c(N)ncn(Cc4c(Cl)cccc4Cl)c-3n2)cn1 [3-[(2,6-Dichlorophenyl)methyl]-8-(6-methoxy(3-pyridyl))-3-hydropurine-6-ylamine] | ≤ 1 |
| Nc1ncn(Cc2c(Cl)ccnc2F)c2ncnc1-2 [3-[(4-chloro-2-fluoro-3-pyridyl)methyl]-3-hydropurine-6-ylamine] | 1 to 20 |

| Compound | IC50 [µM] |
| --- | --- |
| Cn1nccc1-c1nc2c(N)ncn(Cc3c(Cl)cccc3Cl)c-2n1 [3-[(2,6-Dichlorophenyl)methyl]-8-(1-methylpyrazol-5-yl)-3-hydropurine-6-ylamine] | ≤ 1 |
| Nc1ncn(Cc2c(Cl)cccc2I)c2ncnc1-2 [3-(2-Chloro-6-iodo-benzyl)-3H-purin-6-ylamine] | ≤ 1 |
| Oc1cccc(Nc2ncn(Cc3c(Cl)cccc3Cl)c3ncnc2-3)c1 [3-({3-[(2,6-Dichlorophenyl)methyl]-3-hydropurin-6-yl}amino)phenol] | 1 to 20 |
| Nc1ncn(Cc2ccccc2F)c2ncnc1-2 [3-(2-Fluoro-benzyl)-3H-purin-6-ylamine] | 1 to 20 |
| Nc1ncn(Cc2c(Cl)cccc2Cl)c2nc(-c3ccccc3)nc1-2 [3-[(2,6-Dichlorophenyl)methyl]-8-phenyl-3-hydropurine-6-ylamine] | ≤ 1 |
| Nc1ncn(Cc2ccncc2Cl)c2ncnc1-2 [3-[(3-chloro-4-pyridyl)methyl]-3-hydropurine-6-ylamine] | 1 to 20 |
| Nc1ncn(Cc2ccc(Br)cc2)c2ncnc1-2 [3-(4-Bromo-benzyl)-3H-purin-6-ylamine] | 1 to 20 |
| N#Cc1cccc(Cl)c1Cn1cnc(N)c2ncnc1-2 [2-((6-amino-3H-purin-3-yl)methyl)-3-chlorobenzonitrile] | ≤ 1 |
| Nc1ncn(Cc2c(Cl)cncc2Cl)c2nc(-c3ccccc3)nc1-2 [3-[(3,5-Dichloro(4-pyridyl))methyl]-8-phenyl-3-hydropurine-6-ylamine] | ≤ 1 |
| FC(F)Oc1cccc(Nc2ncn(Cc3c(Cl)cccc3Cl)c3ncnc2-3)c1 [3-(2,6-dichlorobenzyl)-N-(3-(difluoromethoxy)phenyl)-3H-purin-6-amine] | 1 to 20 |
| Nc1ncn(Cc2ccc(F)cc2F)c2ncnc1-2 [3-(2,4-difluorobenzyl)-3H-purin-6-amine] | 1 to 20 |
| Nc1ncn(Cc2ccccc2Br)c2ncnc1-2 [3-(2-Bromo-benzyl)-3H-purin-6-ylamine] | 1 to 20 |
| Nc1ncn(Cc2c(Cl)cccc2Cl)c2nc(Br)nc1-2 [3-[(2,6-Dichlorophenyl)methyl]-8-bromo-3-hydropurine-6-ylamine] | 1 to 20 |
| Cc1ccccc1Cc1nc2c(N)ncn(Cc3c(Cl)cccc3Cl)c-2n1 [3-[(2,6-dichlorophenyl)methyl]-8-[(2-methylphenyl)methyl]-3-hydropurine-6-ylamine] | ≤ 1 |
| Nc1ncn(Cc2c(Cl)cccc2Cl)c2nc(C3=CCCCC3)nc1-2 [3-[(2,6-Dichlorophenyl)methyl]-8-cyclohex-1-enyl-3-hydropurine-6-ylamine] | ≤ 1 |

Next, values leading:

| IC50 [µM] | Compound |
| --- | --- |
| 1 to 20 | CCCc1ccc(Nc2ncn(Cc3c(Cl)cccc3Cl)c3ncnc2-3)cc1 [{3-[(2,6-Dichlorophenyl)methyl](3-hydropurin-6-yl)}(4-propylphenyl)amine] |
| 1 to 20 | N#Cc1ccc(CNc2ncn(Cc3c(Cl)cccc3Cl)c3ncnc2-3)cc1 [4-[({3-[(2,6-dichlorophenyl)methyl]-3-hydropurin-6-yl}amino)methyl]benzenecarbonitrile] |
| 1 to 20 | Fc1ccc(CNc2ncn(Cc3c(Cl)cccc3Cl)c3ncnc2-3)cc1 [[3-(2,6-Dichloro-benzyl)-3H-purin-6-yl]-(4-fluoro-benzyl)-amine] |
| 1 to 20 | Clc1cccc(Cl)c1Cn1cnc(NCc2ccccn2)c2ncnc1-2 [[3-(2,6-Dichloro-benzyl)-3H-purin-6-yl]-pyridin-2-ylmethyl-amine] |
| 1 to 20 | Clc1cccc(Cl)c1Cn1cnc(NCc2ccncc2)c2ncnc1-2 [[3-(2,6-Dichloro-benzyl)-3H-purin-6-yl]-pyridin-4-ylmethyl-amine] |
| ≤ 1 | Nc1ncn(Cc2c(Cl)cccc2Cl)c2nc(-c3ccc4ocnc4c3)nc1-2 [8-Benzoxazol-5-yl-3-[(2,6-dichlorophenyl)methyl]-3-hydropurine-6-ylamine] |
| ≤ 1 | Nc1ncn(Cc2c(Cl)cccc2Cl)c2nc(/C=C/c3ccccc3)nc1-2 [8-((1E)-2-Phenylvinyl)-3-[(2,6-dichlorophenyl)methyl]-3-hydropurine-6-ylamine] |
| 1 to 20 | Cc1cccc(Nc2ncn(Cc3c(Cl)cccc3Cl)c3ncnc2-3)c1C [{3-[(2,6-Dichlorophenyl)methyl](3-hydropurin-6-yl)}(2,3-dimethylphenyl)amine] |
| 1 to 20 | Fc1ccc(Nc2ncn(Cc3c(Cl)cccc3Cl)c3ncnc2-3)cc1 [{3-[(2,6-Dichlorophenyl)methyl](3-hydropurin-6-yl)}(4-fluorophenyl)amine] |
| ≥ 20 | NCCNc1ncn(Cc2c(Cl)cccc2Cl)c2ncnc1-2 [(2-Aminoethyl){3-[(2,6-dichlorophenyl)methyl](3-hydropurin-6-yl)}amine] |
| 1 to 20 | Cc1ccccc1Nc1ncn(Cc2c(Cl)cccc2Cl)c2ncnc1-2 [{3-[(2,6-Dichlorophenyl)methyl](3-hydropurin-6-yl)}(2-methylphenyl)amine] |
| ≥ 20 | Fc1ccccc1Cn1cnc(NCc2ccco2)c2ncnc1-2 [[3-(2-Fluoro-benzyl)-3H-purin-6-yl]-furan-2-ylmethyl-amine] |
| ≤ 1 | 8-[(1E)-2-(4-fluorophenyl)vinyl]-3-[(2,6-dichlorophenyl)methyl]-3-hydropurine-6-ylamine |
| 1 to 20 | Fc1cccc(F)c1Cn1cnc(NCc2ccco2)c2ncnc1-2 [[3-(2,6-Difluoro-benzyl)-3H-purin-6-yl]-furan-2-ylmethyl-amine] |
| 1 to 20 | Cc1c(Cl)cccc1Nc1ncn(Cc2c(Cl)cccc2Cl)c2ncnc1-2 [N-(3-Chloro-2-methylphenyl)-3-(2,6-dichlorobenzyl)-3H-purin-6-amine] |
| 1 to 20 | Clc1ccc(CNc2ncn(Cc3c(Cl)cccc3Cl)c3ncnc2-3)cc1 [N-(4-chlorobenzyl)-3-(2,6-dichlorobenzyl)-3h-purin-6-amine] |
| 1 to 20 | COc1ccc(CNc2ncn(Cc3c(Cl)cccc3Cl)c3ncnc2-3)cc1 [{3-[(2,6-dichlorophenyl)methyl](3-hydropurin-6-yl)}[(4-methoxyphenyl)methyl]amine] |
| 1 to 20 | Clc1cccc(Cl)c1Cn1cnc(NCc2ccccc2)c2ncnc1-2 [Benzyl-[3-(2,6-dichloro-benzyl)-3H-purin-6-yl]-amine] |
| 1 to 20 | Clc1ccc(Cl)c(Cn2cnc(NCc3ccco3)c3ncnc2-3)c1 [[3-(2,5-Dichloro-benzyl)-3H-purin-6-yl]-furan-2-ylmethyl-amine] |
| ≥ 20 | COc1ccccc1Cn1cnc(NCc2ccco2)c2ncnc1-2 [Furan-2-ylmethyl-[3-(2-methoxy-benzyl)-3H-purin-6-yl]-amine] |

From patent US20200338084A1, “INHIBITORS OF LOW MOLECULAR WEIGHT PROTEIN TYROSINE PHOSPHATASE (LMPTP) AND USES THEREOF” (Sanford Burnham Prebys Medical Discovery Institute, priority 2018, published 2020)
